What was measured:
[1] = Ribogreen assay for siRNA encapsulation efficiency of Lipid-Based Particles; assay type: physicochemical; details: Lipid:siRNA 25:1
Method: The mixing solution of cationic lipids, cholesterol, non-cationic lipids and PEG-lipids was prepared in ethanol (total concentration at 10 mg/mL). siSTABLE (purchased from ThermoFisher) (sense-5′ GGGGAAAGCUGGCAAGAUUUU-3′ SEQ ID NO: 1) antisense-5′-AAUCUUGCCAGCUUUCCCCUU-3′ SEQ ID NO: 2) % stock solution was prepared in 10 mg/mL of solution by dissolving 10 mg siRNA in 1 mL of RNAse-free UltraPure Water. The calculated amount of siRNA solution was added to 1 mL of citrate buffer (pH 4.0, 20 mM), to provide an siRNA concentration of 0.2 mg/mL, and warmed to 60° C. The calculated amount of lipid solution was warmed to 60° C., transferred to a 0.5 mL syringe with 28½ gauge needle, and injected into the citrate buffer with stirring at 60° C. After 3 minutes, 3 mL of PBS solution at room temperature (pH 7.4) was added into the lipid mixture with stirring. The Lipid-Based Particle solution was cooled to room temperature.
(§1) The siRNA concentrations were measured using Quanti-iT RiboGreen RNA reagent (Molecular Probes, (R11490)). Vesicle sizes were characterized by dynamic light scattering with a DynaPro™ Plate Reader (Wyatt Technology) in 96-well half-area UV plate (Coring) after diluting the formulation sample (20 μL) in phosphate buffered saline (80 μL) at a pH of about 7-8. A 1% agarose gel-based assay was used for analyzing nuclease degradation and protection. Encapsulation efficiency (EE) was calculated using data obtained from a RiboGreen assay.
RNA concentration and encapsulation efficiency were determined using a Quant-iT® Ribogreen RNA reagent and kit available from Invitrogen. The siRNA was released from the Lipid-Based Particle using one of the following reagents: ethanol, Triton X-100, or phenol/chloroform. The siRNA concentration is quantified using fluorescent reading at 480 nm/520 nm.
A round bottom flask was submerged into a 65° C. water bath. Citrate buffer (37.5 ml) of pH 4.0 was pipetted into the flask. The solution was stirred by a magnetic stirring bar at a speed of 900 rpm. Both the pH 4.0 citrate buffer and the lipid solution were pre-warmed in the 65° C. water bath for about 3 minutes. A siRNA solution (0.5 ml) was pipetted into the pH 4.0 citrate buffer. The 12.5 ml lipid mixture solution was injected through a 27 gauge needle into the citrate buffer in about 30 seconds. The needle tip was inserted into the solution during the injection. The resulting solution was stirred for 5 minutes at a speed of 900 rpm. The flask was pulled up from the water bath and a 50 ml pH 7.4 PBS buffer was added into the flask. The final solution was further mixed at a speed of 900 rpm for 5 minutes. For the diafiltration process, a dialysis filter (Millipore, 100K, Cat #PXB100C50) was used to remove ethanol in the above solution. When the volume was reduced to 20 ml during the initial diafiltration, 20 ml of pH 7.4 PBS was added to the sample solution. The diafiltration was continued until the volume was reduced to 20 ml. The diafiltration process was repeated 4 times. The volume of the sample solution was reduced to about 12 ml and pH 7.4 PBS was added to make the final volume of 15 ml. The 15 ml solution was filtered sequentially through the 0.45 and 0.22 μm sterile PVDF membrane filters (Millipore) and immediately transferred into a sterile vial.

[2] = Particle sizing assay of in vitro formulations (dynamic light scattering, DynaPro plate reader); assay type: physicochemical; details: Lipid:siRNA 25:1
Method: as §1
Particle sizes and size distributions (PDI) were characterized by using dynamic light scattering (DLS). A DLS plate reader (Dynapro™, Wyatt Technology) was used for the DLS measurement. This DLS plate reader uses an 830 nm laser and the scattering angle is 158°. It also can control temperature from 4° C. to 70° C. A 96-well format was employed for the samples.
Samples for DLS analysis were prepared by mixing 20 μL of each sample stock solution with 80 μL PBS directly in the 96-well plate (#3697, Coming). Sample mixing was accomplished using a microplate shaker (Orbis, Mikura Ltd.). Plates were read at 20° C. with an acquisition time of 50 seconds for each sample, and data was analyzed with Wyatt Technology's Dynamics V6 software. To rule out potential multiple scattering artifacts, a second plate at […] reduced sample concentrations was independently prepared by mixing 5 μL stock solutions with 95 μL PBS. Under our experimental conditions the results at the two concentrations were very similar, and the final reported result for each sample represents the average of values obtained from the two plates.

[3] = in vitro formulation a: Cationic lipid/Example 56/DSPC/Chol 45/10/15/30 wt %
[4] = in vitro formulation b: Cationic lipid/PEG-Chol/DSPC/Chol 45/10/15/30 wt %

Structure (SMILES) | % Encapsulation Efficiency [1, 3] [%] | Size [2, 3] [nm] | % Encapsulation Efficiency [1, 4] [%] | further results
CCCCC/C=C\C/C=C\CCCCCCCC(=O)OCC(COC(=O)CCCCCCC/C=C\C/C=C\CCCCC)N1CCN(C)CC1 [Example 21, (9Z,9′Z,12Z,12′Z)-2-(4-methylpiperazin-1-yl)propane-1,3-diyl dioctadeca-9,12-dienoate] | 96.6 | 117.2 | – | –
CCCCC/C=C\C/C=C\CCCCCCCCOCC(N)COCCCCCCCC/C=C\C/C=C\CCCCC [Example 11, 1,3-bis((9Z,12Z)-octadeca-9,12-dienyloxy)propan-2-amine] | 96.0 | 132 | – | –
CCCCC/C=C\C/C=C\CCCCCCCCOCC(COCCCCCCCC/C=C\C/C=C\CCCCC)N1CCN(CCN2CCCC2)CC1 [Example 52, 1-(2-[(9Z,12Z)-octadeca-9,12-dienyloxy]-1-{[(9Z,12Z)-octadeca-9,12-dienyloxy]methyl}ethyl)-4-(2-pyrrolidin-1-ylethyl)piperazine] | 77.9 | 111.6 | – | –
CCCCC/C=C\C/C=C\CCCCCCCCOCC(COCCCCCCCC/C=C\C/C=C\CCCCC)COC(=O)NCCN(C)C [Example 30, 3-[(9Z,12Z)-octadeca-9,12-dienyloxy]-2-{[(9Z,12Z)-octadeca-9,12-dienyloxy]methyl}propyl 2-(dimethylamino)ethylcarbamate] | – | – | 95.0 | –
CCCCC/C=C\C/C=C\CCCCCCCCOCC(COCCCCCCCC/C=C\C/C=C\CCCCC)NCc1cccc(CN2CCCC2)c1 [Example 13, N-(2-((9Z,12Z)-octadeca-9,12-dienyloxy)-1-(((9Z,12Z)-octadeca-9,12-dienyloxy)methyl)ethyl)-N-(3-(pyrrolidin-1-ylmethyl)benzyl)amine] | 97.1 | 146 | – | –
CCCCC/C=C\C/C=C\CCCCCCCCOCC(COCCCCCCCC/C=C\C/C=C\CCCCC)N(C)CCCN(C)C [Example 17, N,N,N′-trimethyl-N′-(2-((9Z,12Z)-octadeca-9,12-dienyloxy)-1-(((9Z,12Z)-octadeca-9,12-dienyloxy)methyl)ethyl)propane-1,3-diamine] | – | – | 87.1 | Size [2, 4]: 121.8 nm
CCCCC/C=C\C/C=C\CCCCCCCCOCC(COCCCCCCCC/C=C\C/C=C\CCCCC)NCc1cccnc1N1CCCC1 [Example 20, N-(2-((9Z,12Z)-octadeca-9,12-dienyloxy)-1-(((9Z,12Z)-octadeca-9,12-dienyloxy)methyl)ethyl)-N-((2-pyrrolidin-1-ylpyridin-3-yl)methyl)amine] | 55.9 | 134 | – | –
CCCCC/C=C\C/C=C\CCCCCCCCOCC(CNCCCN1CCCC1)COCCCCCCCC/C=C\C/C=C\CCCCC [Example 26, N-(3-[(9Z,12Z)-octadeca-9,12-dienyloxy]-2-{[(9Z,12Z)-octadeca-9,12-dienyloxy]methyl}propyl)-N-(3-pyrrolidin-1-ylpropyl)amine] | – | – | 99.9 | –
CCCCC/C=C\C/C=C\CCCCCCCCOCC(COCCCCCCCC/C=C\C/C=C\CCCCC)CN(C)C [Example 27, N,N-dimethyl-N-(3-[(9Z,12Z)-octadeca-9,12-dienyloxy]-2-{[(9Z,12Z)-octadeca-9,12-dienyloxy]methyl}propyl)amine] | – | – | 71.9 | –
CCCCC/C=C\C/C=C\CCCCCCCCOCC(COCCCCCCCC/C=C\C/C=C\CCCCC)N(C)Cc1cccc(CN2CCCC2)c1 [Example 18, N-methyl-N-(2-((9Z,12Z)-octadeca-9,12-dienyloxy)-1-(((9Z,12Z)-octadeca-9,12-dienyloxy)methyl)ethyl)-N-(3-(pyrrolidin-1-ylmethyl)benzyl)amine] | 96.7 | 122 | – | –
CCCCC/C=C\C/C=C\CCCCCCCCOCC(COCCCCCCCC/C=C\C/C=C\CCCCC)NCCCNCCCCNCCCN [Example 25, N-(3-aminopropyl)-N′-{3-[(2-[(9Z,12Z)-octadeca-9,12-dienyloxy]-1-{[(9Z,12Z)-octadeca-9,12-dienyloxy]methyl}ethyl)amino]propyl}butane-1,4-diamine] | – | – | 92.3 | –
CCCCC/C=C\C/C=C\CCCCCCCCOCC(COCCCCCCCC/C=C\C/C=C\CCCCC)N1CCN(CCn2ccnc2)CC1 [Example 19, 1-(2-(1H-imidazol-1-yl)ethyl)-4-(2-((9Z,12Z)-octadeca-9,12-dienyloxy)-1-(((9Z,12Z)-octadeca-9,12-dienyloxy)methyl)ethyl)piperazine] | 97.0 | 118 | – | –
CCCCC/C=C\C/C=C\CCCCCCCCOCC(COCCCCCCCC/C=C\C/C=C\CCCCC)NCCN1CCN(C)CC1 [Example 8, N-(2-(4-methylpiperazin-1-yl)ethyl)-N-(2-((9Z,12Z)-octadeca-9,12-dienyloxy)-1-(((9Z,12Z)-octadeca-9,12-dienyloxy)methyl)ethyl)amine] | – | – | 81.8 | Size [2, 4]: 107.6 nm
CCCCC/C=C\C/C=C\CCCCCCCCOCC(COCCCCCCCC/C=C\C/C=C\CCCCC)NCc1cccc(CN2CCN(C)CC2)c1 [Example 15, N-(3-((4-methylpiperazin-1-yl)methyl)benzyl)-N-(2-((9Z,12Z)-octadeca-9,12-dienyloxy)-1-(((9Z,12Z)-octadeca-9,12-dienyloxy)methyl)ethyl)amine] | 96.2 | 116 | – | –
CCCCC/C=C\C/C=C\CCCCCCCCOCC(COCCCCCCCC/C=C\C/C=C\CCCCC)N1CCCC1 [Example 1, 1-(2-((9Z,12Z)-octadeca-9,12-dienyloxy)-1-(((9Z,12Z)-octadeca-9,12-dienyloxy)methyl)ethyl)pyrrolidine] | – | 170 | – | PDI (size distribution) [2, 3]: 0.20
CCCCC/C=C\C/C=C\CCCCCCCCOCC(COCCCCCCCC/C=C\C/C=C\CCCCC)N(C)C [Example 2, N,N-dimethyl-N-(2-((9Z,12Z)-octadeca-9,12-dienyloxy)-1-(((9Z,12Z)-octadeca-9,12-dienyloxy)methyl)ethyl)amine] | – | 134 | – | –
CCCCC/C=C\C/C=C\CCCCCCCCOCC(COCCCCCCCC/C=C\C/C=C\CCCCC)CN1CCCC1 [Example 24, 1-(3-((9Z,12Z)-octadeca-9,12-dienyloxy)-2-(((9Z,12Z)-octadeca-9,12-dienyloxy)methyl)propyl)pyrrolidine] | – | – | 91.7 | –
CCCCC/C=C\C/C=C\CCCCCCCCOCC(COCCCCCCCC/C=C\C/C=C\CCCCC)N1CCOCC1 [Example 5, 4-(2-((9Z,12Z)-octadeca-9,12-dienyloxy)-1-(((9Z,12Z)-octadeca-9,12-dienyloxy)methyl)ethyl)morpholine] | – | 143 | – | PDI (size distribution) [2, 3]: 0.14
CCCCC/C=C\C/C=C\CCCCCCCCOCC(COCCCCCCCC/C=C\C/C=C\CCCCC)COC(=O)NCCN(CC)CC [Example 28, 3-[(9Z,12Z)-octadeca-9,12-dienyloxy]-2-{[(9Z,12Z)-octadeca-9,12-dienyloxy]methyl}propyl 2-(diethylamino)ethylcarbamate] | – | – | 93.0 | –
CCCCC/C=C\C/C=C\CCCCCCCCOCC(COCCCCCCCC/C=C\C/C=C\CCCCC)COC(=O)NCCN1CCCC1 [Example 29, 3-[(9Z,12Z)-octadeca-9,12-dienyloxy]-2-{[(9Z,12Z)-octadeca-9,12-dienyloxy]methyl}propyl 2-pyrrolidin-1-ylethylcarbamate] | – | – | 95.0 | –

— US20100055168A1, “CATIONIC LIPIDS AND USES THEREOF” (ABBOTT LABORATORIES, priority 2008, published 2010)
